According to patent US7160888B2, “[1,8]naphthyridin-2-ones and related compounds for the treatment of schizophrenia” (Warner Lambert Company LLC, priority 2003, dated 2007):

Each compound was assayed against D2 receptor (Homo sapiens, UniProt P14416) (assay: [3H]Thymidine uptake assay for D2 intrinsic activity). Conditions: Table 1; test compound 1 μM; 1 μM Quinpirole = 100% intrinsic activity.
Assay type: cell-based
Method: D2 intrinsic activity of title compounds of the Examples, below, was determined using the [^3H]thymidine uptake assay described below.
[^3H]Thymidine Uptake Assay for D2 Intrinsic Activity
Cells are serum deprived by washing twice with 200 μl of serum-free media. 90 μl serum-free media was added to each well. The plates ware incubated for two to three hours. 10 μl of serum-containing media, as a positive control, vehicle (serum-free media), negative control (an antagonist) or test compounds and standards (10 μl of a 10 μM solution for a final concentration of 1 μM) in serum-free media were added to wells. The plates are returned to the incubator. Eighteen hours later [^3H]thymidine is added (0.5 μCi/well in 10 μl of serum-free media) and the plates are returned to the incubator. […] The plates are returned to the incubator, once again. One hour later the assay is terminated by rapid filtration through Whatman GF/C glass fiber filters. Filters are washed four times with 500 ml of 50 mM Tris-HCl pH 7.0 buffer, for example, using a Brandel MLR-96T cell harvester. […] Intrinsic activity is defined as total uptake (1 μM Quinpirole) minus serum-free media (no uptake). Test compounds are compared to 1 μM Quinpirole (full DA agonist), which was classified as 100% intrinsic activity.

D2 receptor, sequence (P14416 whole entry): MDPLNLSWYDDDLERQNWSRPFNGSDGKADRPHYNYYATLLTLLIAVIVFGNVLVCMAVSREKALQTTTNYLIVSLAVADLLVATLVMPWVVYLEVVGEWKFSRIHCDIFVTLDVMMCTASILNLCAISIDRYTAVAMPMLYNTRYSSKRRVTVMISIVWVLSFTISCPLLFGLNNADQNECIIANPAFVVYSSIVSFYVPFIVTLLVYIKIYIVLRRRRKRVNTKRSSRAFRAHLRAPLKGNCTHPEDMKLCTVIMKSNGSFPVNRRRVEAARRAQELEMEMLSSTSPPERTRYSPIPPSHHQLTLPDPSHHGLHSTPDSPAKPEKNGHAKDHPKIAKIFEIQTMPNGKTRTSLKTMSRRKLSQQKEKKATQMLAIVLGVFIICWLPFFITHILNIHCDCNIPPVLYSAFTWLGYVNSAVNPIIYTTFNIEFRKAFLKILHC

SMILES	Emax at 1 µM
O=C1CCc2ccc(OCCCCN3CCN(c4ccccc4C(F)(F)F)CC3)nc2N1 [Example A37, 7-{4-[4-(2-Trifluoromethyl-phenyl)-piperazin-1-yl]-butoxy}-3,4-dihydro-1H-[1,8]naphthyridin-2-one]	46%
O=C1CCc2ccc(OCCCCN3CCN(c4cccc(C(F)(F)F)c4)CC3)nc2N1 [Example A38, 7-{4-[4-(3-Trifluoromethyl-phenyl)-piperazin-1-yl]-butoxy}-3,4-dihydro-1H-[1,8]naphthyridin-2-one]	23%
O=C1CCc2ccc(OCCCCN3CCN(c4ccccc4)CC3)nc2N1 [Example A39, 7-[4-(4-phenyl-piperazin-1-yl)-butoxy]-3,4-dihydro-1H-[1,8]naphthyridin-2-one]	56%
O=C1CCc2ccc(OCCCCN3CCN(c4ccc(F)cc4)CC3)nc2N1 [Example A40, 7-{4-[4-(4-Fluoro-phenyl)-piperazin-1-yl]-butoxy}-3,4-dihydro-1H-[1,8]naphthyridin-2-one]	32%
O=C1CCc2ccc(OCCCCN3CCN(c4ccc(F)cc4F)CC3)nc2N1 [Example A41, 7-{4-[4-(2,4-Difluoro-phenyl)-piperazin-1-yl]-butoxy}-3,4-dihydro-1H-[1,8]naphthyridin-2-one]	28%
CC(F)(F)c1ccccc1N1CCN(CCCCOc2ccc3c(n2)NC(=O)CC3)CC1 [Example A42, 7-(4-{4-[2-(1,1-Difluoro-ethyl)-phenyl]-piperazin-1-yl}-butoxy)-3,4-dihydro-1H-[1,8]naphthyridin-2-one]	28%
O=C1CCc2ccc(OCCCCN3CCN(c4ccccn4)CC3)nc2N1 [Example A43, 7-[4-(4-Pyridin-2-yl-piperazin-1-yl)-butoxy]-3,4-dihydro-1H-[1,8]naphthyridin-2-one]	75%
Cc1cccc(N2CCN(CCCCOc3ccc4c(n3)NC(=O)CC4)CC2)n1 [Example A44, 7-{4-[4-(6-Methyl-pyridin-2-yl)-piperazin-1-yl]-butoxy}-3,4-dihydro-1H-[1,8]naphthyridin-2-one]	51%

Same assay, conditions: Table 2; test compound 1 μM; 1 μM Quinpirole = 100% intrinsic activity

SMILES	Emax at 1 µM
O=C1CCc2ccc(OCCCCN3CCN(c4cccc5ccncc45)CC3)nc2N1 [Example A36′, 7-[4-(4-Isoquinolin-8-yl-piperazin-1-yl)-butoxy]-3,4-dihydro-1H-[1,8]naphthyridin-2-one]	62%
O=C1CCc2ccc(OCCCCN3CCN(c4cccc5cnccc45)CC3)nc2N1 [Example A37′, 7-[4-(4-Isoquinolin-5-yl-piperazin-1-yl)-butoxy]-3,4-dihydro-1H-[1,8]naphthyridin-2-one]	45%
O=C1CCc2ccc(OCCCCN3CCN(c4cccc5ncc(F)cc45)CC3)nc2N1 [Example A38′, 7-{4-[4-(3-Fluoro-quinolin-5-yl)-piperazin-1-yl]-butoxy}-3,4-dihydro-1H-[1,8]naphthyridin-2-one]	20%
Cc1ccc2cccc(N3CCN(CCCCOc4ccc5c(n4)NC(=O)CC5)CC3)c2n1 [Example A40′, 7-{4-[4-(2-Methyl-quinolin-8-yl)-piperazin-1-yl]-butoxy}-3,4-dihydro-1H-[1,8]naphthyridin-2-one]	30%
COc1ccc2cccc(N3CCN(CCCCOc4ccc5c(n4)NC(=O)CC5)CC3)c2n1 [Example A41′, 7-{4-[4-(2-Methoxy-quinolin-8-yl)-piperazin-1-yl]-butoxy}-3,4-dihydro-1H-[1,8]naphthyridin-2-one]	32%
COc1ccc2c(N3CCN(CCCCOc4ccc5c(n4)NC(=O)CC5)CC3)cccc2n1 [Example A43′, 7-{4-[4-(2-Methoxy-quinolin-5-yl)-piperazin-1-yl]-butoxy}-3,4-dihydro-1H-[1,8]naphthyridin-2-one]	32%
O=C1CCc2ccc(OCCCCN3CCN(c4cccc5nccnc45)CC3)nc2N1 [Example A44′, 7-[4-(4-Quinoxalin-5-yl-piperazin-1-yl)-butoxy]-3,4-dihydro-1H-[1,8]naphthyridin-2-one]	29%
